Data: patent US20260373101A1, “POLYAMINATED FATTY ACIDS FOR USE AS POTENTIATORS OF ANTIBACTERIAL ACTIVITY” (priority 2023, published 2026)
Converted amounts (≈) assume the structure as drawn.

How the values were obtained:
Format in all cases: cell-based
E. coli AG-100 = test: Potentiation of known antibiotics (MIC of antibiotic alone or with PAFA); details: Escherichia coli, AG100, 24 h
Method: (§1) 100 μl of a liquid culture medium is deposited in each well of a 96-well microplate, and then inoculated with the bacterial suspension of example 2.1 prepared for the positive control. The volume needed to inoculate is calculated for an OD of 0.01 which corresponds to approximately 5,106 bacteria in each well. In this plate, the first row corresponds to a negative control (200 μl of sterile culture medium in each well), the second row to a positive control (100 μl of sterile culture medium with 100 μl of the bacterial suspension), the third row contains 192 μl of culture medium and 8 μl of an antibiotic solution (10 mg/ml) to be tested in each well. Subsequently, a cascade dilution is performed from this line. Next, 10 μl of a fatty acid solution (10 μM final concentration) is added to each well of the lines. Then, 90 μl of bacterial suspension is added to lines 3 to 8. The MIC of the antibiotic tested is determined after 24 hours of incubation at 37 °C in a humid atmosphere.
(§2) The table 3 below reports the antibacterial activity (MIC in μg/mL) of a combination of some polyaminated fatty acids prepared in example 1 with various antibacterial drugs: doxycycline (DOX), tetracycline (TET), oxytetracycline (OXY) and minocycline (MINO), against various bacterial strains of P. aeruginosa (PA01, PA0509, and PA263), and of E. coli (AG-100 and AG-100A).

P. aeruginosa PA263 = test: as above; details: for MIC: Pseudomonas aeruginosa, PA263, 24 h, 24 h
Method: as §1, §2

P. aeruginosa PA01 = test: as above; details: Pseudomonas aeruginosa, PA01, 24 h
Method: as §1, §2

E. coli AG-100A = test: as above; details: Escherichia coli, AG100A, 24 h
Method: as §1, §2

P. aeruginosa PA0509 = test: as above; details: Pseudomonas aeruginosa, PA0509, 24 h
Method: as §1, §2

S. aureus ATCC25923 = test: Intrinsic antibacterial activity, standard microdilution (CLSI); details: Staphylococcus aureus; S. aureus ATCC25923, compound alone, 24 h, 37 °C
Method: (§3) The bacterial strains used in the examples below are the reference strains P. aeruginosa ATCC27853, E. coli ATCC25922, K. pneumoniae ATCC51296, S. aureus ATCC25923 and E. faecalis ATCC29212. The bacterial strains were previously stored in 15% (v/v) glycerol at −80 °C for cryoprotection. One colony of the fresh culture of each strain was incubated in a culture tube containing 3 ml of Mueller-Hinton broth (MH2) at 37 °C overnight with agitation. This suspension was used for inoculum preparation.
(§4) The antibacterial activity of said polyaminated fatty acid compounds was measured using a standard microdilution test based on Clinical and Laboratory Standards Institute (CLSI) guidelines. This method was slightly modified by increasing the assay volumes to 200 μl so as to improve reproducibility.
(§5) A negative control which corresponds to 2 ml of sterile culture medium and a positive control which corresponds to a mixture of 1980 μl of culture medium and 20 μl of bacterial suspension from a thawed biological strain (biological strains are stored at −80 °C in glycerol) were prepared.
(§6) The tubes were incubated in an incubator shaker “Infors” at 37 °C for 24 hours at 100 round per minute (rpm).
(§7) The polyaminated fatty acid compounds to be tested were prepared in water at a concentration of 10 mM.
(§8) The required volume of the microbial suspension to be inoculated was calculated for an optical density (OD) measured corresponding to a value equal to 0.01 in each well by using a spectrophotometer at 600 nm. In the microplate, the first row corresponded to the negative control (200 μl of sterile culture medium in each well), the second row to the positive control (seeded culture medium), the third row was loaded twice with bacterial suspension and with 8 μl of a given polyaminated fatty acid compound in each well. Subsequently, a half-fold cascade dilution was performed from this line. The first column was used as an inhibition control. A sterile filter was then placed on the microplate allowing the passage of gases but not contaminants. The microplate was incubated at 37 °C in a humid atmosphere for 24 hours. After 24 hours of incubation, an optical density measurement was performed by taking 100 μl of the bacterial suspension diluted in 900 μl of sterile culture medium.
(§9) The medium used was Mueller-Hinton medium (MH) for bacteria. All tests were performed in duplicate.
(§10) Table 1 below reports the intrinsic antibacterial activity of some polymaminated fatty acids prepared in example 1 (MIC in μM) as well as their toxicity towards eucaryotic cells (IC50 in μM).

P. aeruginosa ATCC27853 = test: as above; details: Pseudomonas aeruginosa; P. aeruginosa ATCC27853, compound alone, 24 h, 37 °C
Method: as §3, §4, §5, §6, §7, §8, §9, §10

E. coli ATCC28922 = test: as above; details: Escherichia coli, ATCC28922, 24 h
[1] = test system: Chinese hamster ovary cells (CHO-K1); test: Toxicity on mammalian cells, WST1 assay; details: Cricetulus griseus; CHO-K1 cell viability, WST1, 24 h
Method: The WST1 assay was used to measure the cytotoxic activity of the polyaminated fatty acid compounds. It is a colorimetric assay that measures viability and cell proliferation rate. It is based on the cleavage of colorless tetrazolium salts WST-1 (4-[3-(4-iodophenyl)-2-(4-nitrophenyl)-2H-5-tetrazolio]-1,3-benzene disulfonate) by mitochondrial dehydrogenases into yellow formazan derivative, quantifiable by spectrophotometry at 420-480 nm.
The WST1 assay was performed on Chinese hamster ovary cells. CHO-K1 cells (ATCC, USA) were maintained in culture in “Mac Coy's 5A” medium supplemented with 10% fetal calf serum, 2 mM L-glutamine and streptomycin penicillin mixture (100 U/ml: 10 μg/ml). Incubation is carried out at 37 °C under CO2 enriched atmosphere (5% by volume) and subcultured every two days.
Cells are transferred to 96-well plates (25,000 cells/ml) in complete “Mac Coy's 5A medium”, and maintained for 24 h at 37 °C under a humid CO2-enriched atmosphere (5% by volume). Increasing concentrations of given polyaminated fatty acid compounds are added to the wells in duplicate assays and 8 growth controls containing cells in medium alone are included in each assay run. After 24 hours at 37 °C (5% CO2), the culture medium is removed, the cells are rinsed in phosphate buffer (PBS) and 50 μL of PBS containing 10% WST1 reagent is added to each well. After 20 minutes of incubation at 37 °C, the results are read by spectrophotometry at 450 nm.
The results are expressed as dose-response relationships, modeled by a non-linear regression analysis using TableCurve software. The 50% Inhibitory Concentration (IC50) represents the concentration of polyaminated fatty acid compound capable of reducing cell viability by 50%.

[2] = MIC of antibiotic, AG-100, +PAFA10 (10 μM)
[3] = MIC of antibiotic, AG-100, +PAFA11 (10 μM)
[4] = MIC of antibiotic, AG-100, +PAFA14 (10 μM)
[5] = MIC of antibiotic, PA263, +PAFA10 (10 μM)
[6] = MIC of antibiotic, PA263, +PAFA11 (10 μM)
[7] = MIC of antibiotic, PA263, +PAFA14 (10 μM)
[8] = MIC of antibiotic, PA01, +PAFA10 (10 μM)
[9] = MIC of antibiotic, PA01, +PAFA11 (10 μM)
[10] = MIC of antibiotic, PA01, +PAFA14 (10 μM)
[11] = MIC of antibiotic, +PAFA10 (10 μM)
[12] = MIC of antibiotic, +PAFA11 (10 μM)
[13] = MIC of antibiotic, +PAFA14 (10 μM)
[14] = MIC of antibiotic, PA0509, +PAFA10 (10 μM), 24 h
[15] = MIC of antibiotic, PA0509, +PAFA11 (10 μM), 24 h
[16] = MIC of antibiotic, PA0509, +PAFA14 (10 μM), 24 h

Structure (SMILES) | MIC (E. coli AG-100; AG-100, Antibiotic alone) [µg/mL] | MIC (E. coli AG-100; [2]) [µg/mL] | MIC (E. coli AG-100; [3]) [µg/mL] | MIC (E. coli AG-100; [4]) [µg/mL] | fold reduction in MIC (MIC alone / MIC with PAFA) (P. aeruginosa PA263; PA263, +PAFA11 (10 μM)) | MIC (P. aeruginosa PA263; [5]) [µg/mL] | MIC (P. aeruginosa PA263; [6]) [µg/mL] | MIC (P. aeruginosa PA263; [7]) [µg/mL] | MIC (P. aeruginosa PA263; PA263, Antibiotic alone) [µg/mL] | MIC (P. aeruginosa PA01; [8]) [µg/mL] | MIC (P. aeruginosa PA01; [9]) [µg/mL] | MIC (P. aeruginosa PA01; [10]) [µg/mL] | MIC (P. aeruginosa PA01; PA01, Antibiotic alone) [µg/mL] | MIC (E. coli AG-100A; Antibiotic alone) [µg/mL] | MIC (E. coli AG-100A; [11]) [µg/mL] | MIC (E. coli AG-100A; [12]) [µg/mL] | MIC (S. aureus ATCC25923) [µM] | MIC (P. aeruginosa ATCC27853) [µM] | MIC (E. coli ATCC28922) [µM] | IC50 [1] [µM] | also measured
CN(C)c1ccc(O)c2c1C[C@H]1C[C@H]3[C@H](N(C)C)C(O)=C(C(N)=O)C(=O)[C@@]3(O)C(O)=C1C2=O [MINO, minocycline] | 1 | 0.13 | 0.13 | 0.004 | 2 | 4 | 8 | 2 | 16 | 2 | 4 | 0.5 | 16 | 0.25 | 0.25 | 0.25 |  |  |  |  | MIC (E. coli AG-100A; [13]): 0.004 µg/mL; MIC (P. aeruginosa PA0509): 1 µg/mL; MIC (P. aeruginosa PA0509; [14]): 0.5 µg/mL; MIC (P. aeruginosa PA0509; [15]): 0.5 µg/mL; MIC (P. aeruginosa PA0509; [16]): 0.063 µg/mL
CN(C)[C@@H]1C(O)=C(C(N)=O)C(=O)[C@@]2(O)C(O)=C3C(=O)c4c(O)cccc4[C@@](C)(O)[C@H]3[C@H](O)[C@@H]12 [OXY, oxytetracycline] | 1 | 1 | 0.13 | 0.008 | 2 | 8 | 16 | 4 | 32 | 8 | 8 | 2 | 32 | 1 | 1 | 1 |  |  |  |  | MIC (E. coli AG-100A; [13]): 0.008 µg/mL; MIC (P. aeruginosa PA0509): 1 µg/mL; MIC (P. aeruginosa PA0509; [14]): 0.25 µg/mL; MIC (P. aeruginosa PA0509; [15]): 0.5 µg/mL; MIC (P. aeruginosa PA0509; [16]): 0.063 µg/mL
CCCCCCCC/C=C\CCCCCCCC(=O)NCCCNCCCCNCCCN [PAFA1] |  |  |  |  |  |  |  |  |  |  |  |  |  |  |  |  | > 200 | > 200 | > 200 | 152 | 
CCCCCCCCCCCCCCCC(=O)NCCCNCCCN [PAFA3] |  |  |  |  |  |  |  |  |  |  |  |  |  |  |  |  | > 200 | > 200 | 200 (≈ 73.9 µg/mL) | 56 | 
CCCCCCCCCCCCCCCC(=O)NCCCNCCCCNCCCN [PAFA4] |  |  |  |  |  |  |  |  |  |  |  |  |  |  |  |  | > 200 | > 200 | > 200 | 268 | 
CCCCC/C=C\C/C=C\CCCCCCCC(=O)NCCCN [PAFA7] |  |  |  |  |  |  |  |  |  |  |  |  |  |  |  |  | 50 (≈ 16.8 µg/mL) | > 200 | 100 (≈ 33.7 µg/mL) | 168 | 
CCCCC/C=C\C/C=C\CCCCCCCC(=O)NCCCNCCCNCCCN [PAFA13] |  |  |  |  |  |  |  |  |  |  |  |  |  |  |  |  | 50 (≈ 22.5 µg/mL) | 200 (≈ 90.2 µg/mL) | 100 (≈ 45.1 µg/mL) | 465 | 
CN(C)[C@@H]1C(O)=C(C(N)=O)C(=O)[C@@]2(O)C(O)=C3C(=O)c4c(O)cccc4[C@@](C)(O)[C@H]3C[C@@H]12 [TET, tetracycline] | 1 | 0.5 | 0.25 | 0.008 | 2 | 8 | 16 | 4 | 32 | 8 | 8 | 2 | 32 | 1 | 0.5 | 0.5 |  |  |  |  | MIC (E. coli AG-100A; [13]): 0.008 µg/mL; MIC (P. aeruginosa PA0509): 1 µg/mL; MIC (P. aeruginosa PA0509; [14]): 0.5 µg/mL; MIC (P. aeruginosa PA0509; [15]): 0.25 µg/mL; MIC (P. aeruginosa PA0509; [16]): 0.125 µg/mL
